Like-named read-outs stand apart in the source and are kept apart here.
Legend:
KB-8-5 (MDR1+) = experiment: Cell survival assay (SRB), KB-8-5 (MDR1+); details: for IC50: Homo sapiens
KB-V1 (MDR1++) = experiment: Cell survival assay (SRB), KB-V1 (MDR1++); details: for IC50: Homo sapiens
KB-3-1 = experiment: Cell survival assay (SRB), KB-3-1; type: cell-based, human; details: Homo sapiens
Source text: Cells lines with previously known mechanisms of resistance. […] Res. 8: 207-218,1996); KB-3-1 (parental derived from an epidermoid carcinoma), KB-8.5, KB-V1 (Akiyama S-I, Fojo A, Hanover J A, Pastan I, Gottesman M M. Isolation and genetic characterization of human KB cell lines resistant to multiple drugs. Somatic Cell Mol. Gen., 11: 117-126,1985; Shen D-W, Cardarelli C, Hwang J, Cornwell M, Richert N, Ishii S, Pastan I, Gottesman MM. […] J. Biol. Chem., 261: 7762-7770, 1986); and HL-60 (parental derived from human leukemia) and HL60/AR (McGrath T., Center M. S. Adriamycin resistance in HL60 cells in the absence of detectable P-glycoprotein. Biochem. Res. Commun., 145:1171-1176,1987); A549 and A549.EpoB40 (He L., Yang C.-P.H., Horwitz S. B. Mutations in p-tubulin map to domains involved in regulation of microtubule stability in epothilone-resistant cell lines. Molecular Cancer Therapeutics. 1: 3-10, 2001). HCT-15 human colon carcinoma and DLD-1 human colon carcinoma are obtained from American Tissue Culture Collection. The MX-1W carcinoma is a Wyeth variant orginally obtained as MX-1 breast carcinoma from the National Cancer Institute. Cell lines selected for resistance to Representative Example 129. KB-3-1 cells are selected for resistance to Example 129 by chronically exposing cells to increasing concentrations of Example 129.
2.2. Cell Survival Assay: Standard Pharmacological Test Procedure. The concentration of candidate inhibitor required to inhibit 50% of cell growth (IC50) is done according to previously reported methods. […] Compounds are serially diluted into media as 2× stocks and 100 μl added to cells in duplicate. Compounds are incubated with cells for 3 days. At the end of the incubation period the sulforhodamine B (SRB) assay, which measures protein content as an assessment of cell survival, is performed as described previously (Skehan P, Storeng R, Scudiero D, Monks A, McMahon J, Vistica D, Warren J T, Bokesch H, Kenney S, Boyd MR. New calorimetric cytotoxicity assay for anticancer-drug screening. J Natl Cancer Inst 1990 Jul 4;82(13):1107-12) with some modification as follows. For KB-3-1 cells with 20% FCS, media is gently decanted and replaced with 200 μl of serum-free media mixed with cold 50% TCA for a final concentration of 10% TCA. The plates are incubated for 1 hr at 4° C., followed by washing 5 times in cold distilled water, then air dried overnight. The fixed cells are stained for 10 min with 80 μl of 0.04% SRB solution prepared in 1% glacial acetic acid. Stain is discarded and plates washed 5 times in 1% glacial acetic acid, then air-dried until completely dry. Stained cell product is dissolved in 150 μl of 10 mM Trizma Base and placed on a shaker for 20 minutes until fully dissolved. Absorbance is read on a Victor V multi-label plate reader (Perkin Elmer, Gaithersburg, Md.).

[1] = MDR1, read-out: In vitro IC50 (nM) KB85
[2] = read-out: In vitro IC50 (nM) KBV1
[3] = KB 3-1, KB-3-1 cells (paclitaxel-sensitive parent), read-out: In vitro IC50 (nM) KB-3-1

| SMILES | Ratio KB85/KB (KB-8-5 (MDR1+)) | IC50 (KB-8-5 (MDR1+); [1]) [nM] | Ratio KBV1/KB (KB-V1 (MDR1++)) | IC50 (KB-V1 (MDR1++); [2]) [nM] | IC50 (KB-3-1; [3]) [nM] | IC50 (KB-V1 (MDR1++); read-out: In vitro IC50 KBV1) [nM] | RR, relative resistance (KB-8-5 (MDR1+)) | IC50 (KB-8-5 (MDR1+); MDR1, read-out: KB-8-5 (MDR1+) IC50, nM (N)) [nM] | RR, relative resistance (KB-V1 (MDR1++)) | IC50 (KB-V1 (MDR1++); read-out: KB-V1 (MDR1++) IC50, nM (N)) [nM] | IC50 (KB-3-1; KB 3-1, KB-3-1 parental, Table 3, read-out: KB-3-1 IC50, nM (N)) [nM] |
| --- | --- | --- | --- | --- | --- | --- | --- | --- | --- | --- | --- |
| CN[C@H](C(=O)N[C@H](C(=O)N(C)[C@H](/C=C(\C)C(=O)O)C(C)C)C(C)(C)C)C(C)(C)c1csc2ccccc12 [Example 26, 3-(1-Benzothien-3-yl)-N-methylvalyl-N^1-[(1S,2E)-3-carboxy-1-isopropyl-2-butenyl]-N^1,3-dimethyl-L-valinamide] | 2.0 | 9.1 | 92.6 | 417 | 4.5 |  |  |  |  |  |  |
| C/C(=C\[C@H](C(C)C)N(C)C(=O)[C@@H](NC(=O)[C@@H](N(C)CCO)C(C)(C)c1ccccc1)C(C)(C)C)C(=O)O [Example 53, N-(2-hydroxyethyl)-N,β,β-trimethyl-L-phenylalanyl-N^1-[(1S,2E)-3-carboxy-1-isopropylbut-2-enyl]-N^1,3-dimethyl-L-valinamide] | 1.4 | 61.7 | 67.1 | ≥ 3000 | 44.7 |  |  |  |  |  |  |
| CN[C@H](C(=O)N[C@H](C(=O)N(C)[C@H](/C=C(\C)C(=O)O)C(C)C)C(C)(C)C)C(C)(C)c1ccc(C(=O)O)cc1 [Example 45, 4-carboxy-N,β,β-trimethylphenylalanyl-N^1-[(1S,2E)-3-carboxy-1-isopropylbut-2-enyl]-N^1,3-dimethyl-L-valinamide] | 2.3 | 1530 |  |  | 680 | > 3000 |  |  |  |  |  |
| CNC(C(=O)N[C@H](C(=O)N(C)[C@H](/C=C(\C)C(=O)O)C(C)C)C(C)(C)C)C1(c2ccccc2)CC1 (stereo in doubt) [Example 142, (2E,4S)-2,5-dimethyl-4-(methyl{3-methyl-N-[(2S)-2-(methylamino)-2-(1-phenylcyclopropyl)acetyl]-L-valyl}amino)hex-2-enoic Acid] | 2.2 | 513 | 13.2 | > 3000 | 227 |  |  |  |  |  |  |
| CN[C@H](C(=O)N[C@H](C(=O)N(C)[C@H](/C=C(\C)C(=O)O)C(C)C)C(C)(C)C)C(C)(C)c1cc(F)cc(F)c1 [Example 64, 3,5-Difluoro-N,β,β-trimethyl-L-phenylalanyl-N^1-[(1S,2E)-3-carboxy-1-isopropylbut-2-enyl]-N^1,3-dimethyl-L-valinamide] | 2.6 | 16.2 | 73.7 | 457 | 6.2 |  |  |  |  |  |  |
| CN[C@@H](C(=O)N[C@H](C(=O)N(C)[C@H](/C=C(\C)C(=O)O)C(C)C)C(C)(C)C)C(C)(C)c1cccc(Cl)c1 [Example 3, 3-Chloro-N,β,β-trimethyl-D-phenylalanyl-N^1-[(1S,2E)-3-carboxy-1-isopropyl-2-butenyl]-N^1,3-dimethyl-L-valinamide] | 1.3 | 20 | 76.0 | 1150 | 15.1 |  |  |  |  |  |  |
| CCCCCC(C)(C)[C@H](NC)C(=O)N[C@H](C(=O)N(C)[C@H](/C=C(\C)C(=O)O)C(C)C)C(C)(C)C [Example 50, (2E,4S)-4-[((2S)-2-{[(2S)-3,3-dimethyl-2-(methylamino)octanoyl]amino}-3,3-dimethylbutanoyl)(methyl)amino]-2,5-dimethyl-2-hexenoic acid] | 2.2 | 19 | 58.9 | 513 | 8.7 |  |  |  |  |  |  |
| CN[C@H](C(=O)N[C@H](C(=O)N(C)[C@H](/C=C(\C)C(=O)OCc1cccs1)C(C)C)C(C)(C)C)C(C)(C)c1ccccc1 [Example 115, N,β,β-trimethyl-L-phenylalanyl-N^1-[(1S,2E)-1-isopropyl-3-methyl-4-oxo-4-(thien-2-ylmethoxy)but-2-enyl]-N^1,3-dimethyl-L-valinamide] | 46.2 | 231 |  |  | 5 | > 3000 |  |  |  |  |  |
| CN[C@@H](C(=O)N[C@H](C(=O)N(C)[C@H](/C=C(\C)C(=O)O)C(C)C)C(C)(C)C)C(C)(C)Cc1ccccc1 [Example 49, N,3-dimethyl-4-phenyl-D-valyl-N^1-[(1S,2E)-3-carboxy-1-isopropyl-2-butenyl]-N^1,3-dimethyl-L-valinamide] | 2.8 | 55 | 99.8 | 2000 | 20 |  |  |  |  |  |  |
| CCOC(=O)/C(C)=C/[C@H](C(C)C)N(C)C(=O)[C@@H](NC(=O)[C@@H](NC)C(C)(C)c1ccc(C(C)(C)C)cc1)C(C)(C)C [Example 29, 4-tert-Butyl-N,β,β-trimethylphenylalanyl-N^1-[(1S,2E)-4-ethoxy-1-isopropyl-3-methyl-4-oxo-2-butenyl]-N^1,3-dimethyl-L-valinamide] | 10.7 | 380 | 84.7 | ≥ 3000 | 35.4 |  |  |  |  |  |  |
| CN[C@H](C(=O)N[C@H](C(=O)N(C)[C@H](/C=C(\C)C(=O)O)C(C)C)C(C)(C)C)C(C)(C)c1ccccc1C [Example 35, N,β,β,2-Tetramethyl-L-phenylalanyl-N^1-[(1S,2E)-3-carboxy-1-isopropyl-2-butenyl]-N^1,3-dimethyl-L-valinamide] | 2.0 | 1.8 | 61.6 | 56.2 | 0.912 |  |  |  |  |  |  |
| CCOC(=O)/C(C)=C/[C@H](C(C)C)N(C)C(=O)[C@@H](NC(=O)[C@@H](NC)C(C)(C)c1cc2ccccc2s1)C(C)(C)C [Example 27, 3-(1-Benzothien-2-yl)-N-methylvalyl-N^1-[(1S,2E)4-ethoxy-1-isopropyl-3-methyl4-oxo-2-butenyl]-N^1,3-dimethyl-L-valinamide] | 4.8 | 1580 | 9.1 | ≥ 3000 | 331 |  |  |  |  |  |  |
| CN[C@H](C(=O)N[C@H](C(=O)N(C)[C@H](/C=C(\C)C(=O)O)C(C)C)C(C)(C)C)C(C)(C)c1cc(C(F)(F)F)cc(C(F)(F)F)c1 [Example 66, N,β,β-trimethyl-3,5-bis(trifluoromethyl)-L-phenylalanyl-N^1-[(1S,2E)-3-carboxy-1-isopropylbut-2-enyl]-N^1,3-dimethyl-L-valinamide] | 1.1 | 19 | 26.9 | 457 | 17 |  |  |  |  |  |  |
| CN[C@H](C(=O)N[C@@H](CCc1ccccc1)C(=O)N(C)[C@H](/C=C(\C)C(=O)O)C(C)C)C(C)(C)c1ccccc1 [Example 89, (E ,4S)-2,5-Dimethyl-4-[methyl((2S)-2-{[(2S)-3-methyl-2-(methylamino)-3-phenylbutanoyl]amino}4-phenylbutanoyl)amino]-2-hexenoic Acid] | 1.5 | 274 | 16.6 | ≥ 3000 | 180 |  |  |  |  |  |  |
| CN[C@H](C(=O)N[C@H](C(=O)N(C)[C@H](/C=C(\C)C(=O)O)C(C)C)C(C)(C)C)C(C)(C)c1cn(C)c2ccccc12 [Hemiasterlin, hemiasterlin, reference compound] |  |  |  |  |  |  | 3.2 | 1 | 239 | 76.1 | 0.319 ± 0.095 |
| CN[C@H](C(=O)N[C@H](C(=O)N(C)[C@H](/C=C/C(=O)O)C(C)C)C(C)(C)C)C(C)(C)c1ccccc1 [Example 118, N,β,β-trimethyl-L-phenylalanyl-N^1-[(1S,2E)-3-carboxy-1-isopropylprop-2-enyl]-N^1,3-dimethyl-L-valinamide] | 2.5 | 479 | 15.7 | ≥ 3000 | 190 |  |  |  |  |  |  |

— patent publication US20040121965A1, “Method of treating resistant tumors” (Wyeth Holdings Corporation, priority 2002, published 2004)
